# “Also recorded” adds a separate entry of the source.
# Experiments:
# EKVX = assay: NCI 60 cell panel SRB screen; assay type: cell-based, human; conditions: for GI50 / IC (TGI) / LC50: Homo sapiens, 5 log dose; for LC50: 48 h; for percent cell growth promotion: single dose 10 μM
# SF-539 = assay: NCI 60 cell panel SRB screen; assay type: cell-based, human; conditions: for GI50 / IC (TGI) / CC50: Homo sapiens, SF-539, 5 log dose; for CC50: 48 h, read-out: LC50 (the source's name); for percent cell growth promotion: SF-539, single dose 10 μM
# SNB-75 = assay: NCI 60 cell panel SRB screen; assay type: cell-based; conditions: Homo sapiens; for GI50 / IC (TGI) / LC50 (concentration killing 50% of cells): SNB-75, 5 log dose; for LC50 (concentration killing 50% of cells): 48 h; for activity at 10 µM: SNB-75, single dose 10 μM, read-out: percent cell growth promotion
# M14 = assay: NCI 60 cell panel SRB screen; assay type: cell-based; conditions: Homo sapiens; for GI50: M14; for IC (TGI): M14, read-out: TGI; for activity at 10 µM: M14, read-out: percent cell growth promotion; for CC50: M14, 5 log dose, 48 h, read-out: LC50 (the source's name)
# SK-MEL-2 = assay: NCI 60 cell panel SRB screen; assay type: cell-based; conditions: for GI50 / IC (TGI) / CC50: Homo sapiens; for IC (TGI): read-out: TGI; for CC50: SK-MEL-2, 5 log dose, 48 h, read-out: LC50 (the source's name); for percent cell growth promotion: SK-MEL-2, single dose 10 μM
# UACC-62 = assay: NCI 60 cell panel SRB screen; assay type: cell-based; conditions: for GI50 / activity at 10 µM / CC50: Homo sapiens; for GI50: UACC-62; for activity at 10 µM: UACC-62, read-out: percent cell growth promotion; for CC50 / TGI: UACC-62, 5 log dose; for CC50: 48 h, read-out: LC50 (the source's name)
# IGROV1 = assay: NCI 60 cell panel SRB screen; assay type: cell-based; conditions: Homo sapiens, IGROV-1; for GI50 / IC (TGI) / CC50: IGROV1, 5 log dose; for CC50: 48 h, read-out: LC50 (the source's name); for activity at 10 µM: IGROV1, single dose 10 μM, read-out: percent cell growth promotion
# 786-0 = assay: NCI 60 cell panel SRB screen; assay type: cell-based; conditions: Homo sapiens; for GI50 / IC (TGI) / CC50: 786-0, 5 log dose; for CC50: 48 h, read-out: LC50 (the source's name); for activity at 10 µM: 786-0, single dose 10 μM, read-out: percent cell growth promotion
# UO-31 = assay: NCI 60 cell panel SRB screen; assay type: cell-based; conditions: Homo sapiens; for GI50 / IC (TGI) / CC50: UO-31, 5 log dose; for CC50: 48 h, read-out: LC50 (the source's name); for activity at 10 µM: UO-31, single dose 10 μM, read-out: percent cell growth promotion
# MCF7 = assay: NCI 60 cell panel SRB screen; assay type: cell-based; conditions: Homo sapiens; for IC (TGI): MCF7, read-out: TGI; for activity at 10 µM: MCF7, read-out: percent cell growth promotion; for CC50: MCF7, 5 log dose, 48 h, read-out: LC50 (the source's name); for GI50: MCF7
# BT-549 = assay: NCI 60 cell panel SRB screen; assay type: cell-based; conditions: Homo sapiens; for GI50: BT-549; for IC (TGI): BT-549, read-out: TGI; for activity at 10 µM: BT-549, read-out: percent cell growth promotion; for CC50: BT-549, 5 log dose, 48 h, read-out: LC50 (the source's name)
# HCT-116 cells [1] = assay: Cell-cycle analysis by flow cytometry; assay type: cell-based; conditions: HCT-116, at GI50 concentration (1.20 µM), 24 h and 48 h
# Experimental: The cells then were collected by trypsinization, washed with phosphate buffered saline (PBS), and fixed in ice-cold absolute alcohol. Thereafter, cells were stained, using Cycletest^TM Plus DNA Reagent Kit (BD Biosciences, San Jose, CA), according to the manufacturer’s instructions. Cell cycle distribution was determined using a FACS Calibur flow cytometer (BD Biosciences, San Jose, CA).
# HCT-116 cells [2] = assay: Annexin V-FITC/PI apoptosis detection; assay type: cell-based; conditions: HCT-116, at GI50, 24 h and 48 h
# Source text: To further investigate the ability of compounds (7b, 13c and 16a) to induce apoptosis, an Annexin V (conjugated to FITC) apoptosis detection kit was employed. This assay detects phosphatidylserine (PS) expressed on the surface of apoptotic cells and fluoresces green after interacting with the labelled Annexin V. During early apoptosis, membrane asymmetry is lost, and PS translocates from the cytoplasmic side of the membrane to the external leaflet. Propidium iodide (PI), the counter stain used in this assay, has the ability to cross only compromised membranes to intercalate into the DNA. Therefore, PI is used to detect the late stages of apoptosis by the presence of red fluorescence.
# Apoptosis was determined by staining cells with Annexin V–fluorescein isothiocyanate (FITC) and counterstaining with propidium iodide (PI) using the Annexin V–FITC/PI apoptosis detection kit (BD PharMingen, San Diego, CA, USA) according to the manufacturer's instructions. […] The cells then were collected by trypsinization and 0.5 × 10^6 cells were washed twice with phosphate-buffered saline (PBS) and stained with 5 μl Annexin V–FITC and 5 μl PI in 1× binding buffer (BD PharMingen) for 15 minutes at room temperature in the dark. Analyses were performed using FACS Calibur flow cytometer (BD Biosciences, San Jose, CA).
# full NCI 60 cell panel = assay: NCI 60 cell panel SRB screen, whole panel; assay type: cell-based, human; conditions: for GI50: Homo sapiens, 60 cell, NCI 5-log dose, full 60 cell panel, read-out: GI50 values, range over the tested cell lines
structure (smiles),measurement,setting,value
"Clc1ccc(Nc2nnc(CNc3ccccc3)c3ccccc23)cc1 [Compound 16a, N-(4-Chlorophenyl)-4-((phenylamino)methyl)phthalazin-1-amine]",GI50,EKVX,1.61 µM
same,IC (TGI),EKVX,15 µM
same,LC50,EKVX,> 25 µM
same,percent cell growth promotion,EKVX,16.86%
same,GI50,SF-539,3.67 µM
same,IC (TGI),SF-539,8.1 µM
same,CC50,SF-539,17.8 µM
same,percent cell growth promotion,SF-539,33.99%
same,GI50,SNB-75,0.87 µM
same,IC (TGI),SNB-75,7.05 µM
same,LC50 (concentration killing 50% of cells),SNB-75,> 25 µM
same,activity at 10 µM,SNB-75,19.6%
same,GI50,M14,1.74 µM
same,IC (TGI),M14,6.65 µM
same,activity at 10 µM,M14,5.8%
same,CC50,M14,20.6 µM
same,GI50,SK-MEL-2,2.16 µM
same,IC (TGI),SK-MEL-2,5.83 µM
same,CC50,SK-MEL-2,14.5 µM
same,percent cell growth promotion,SK-MEL-2,8.63%
same,GI50,UACC-62,1.25 µM
same,activity at 10 µM,UACC-62,8.47%
same,CC50,UACC-62,19 µM
same,TGI,UACC-62,5.70 µM
same,GI50,IGROV1,1.93 µM
same,IC (TGI),IGROV1,10.7 µM
same,CC50,IGROV1,> 25 µM
same,activity at 10 µM,IGROV1,19.1%
same,GI50,786-0,4.01 µM
same,IC (TGI),786-0,12.5 µM
same,CC50,786-0,> 25 µM
same,activity at 10 µM,786-0,21.4%
same,GI50,UO-31,1.36 µM
same,IC (TGI),UO-31,6.66 µM
same,CC50,UO-31,23.8 µM
same,activity at 10 µM,UO-31,1.91%
same,IC (TGI),MCF7,11.1 µM
same,activity at 10 µM,MCF7,9.2%
same,CC50,MCF7,> 25 µM
same,GI50,BT-549,2.93 µM
same,IC (TGI),BT-549,8.2 µM
same,activity at 10 µM,BT-549,4.94%
same,CC50,BT-549,22.9 µM
same,effect on cell-cycle progression,HCT-116 cells [1],induce cell cycle arrest at S phase boundary; also recorded: significant action at both S phase and sub-G1 cell population
same,"induction of apoptosis (Annexin-V positive cells), in words",HCT-116 cells [2],increased the percentage of Annexin-V positive cells in lower right quadrant indicating early apoptosis
same,GI50,full NCI 60 cell panel,0.15 to 8.41 µM
same,"sensitivity in the 5 log dose assay, in words",full NCI 60 cell panel; NCI 5 log dose,insensitive to prostate and MCF-7 breast cancer cell lines
"COc1cccc(NCc2nnc(Nc3ccc(Cl)cc3)c3ccccc23)c1 [Compound 16d, N-(4-Chlorophenyl)-4-((3-methoxyphenylamino)methyl)phthalazin-1-amine]",GI50,EKVX,0.58 µM
same,IC (TGI),EKVX,6.4 µM
same,LC50,EKVX,> 25 µM
same,percent cell growth promotion,EKVX,-0.28%
same,GI50,SF-539,3.07 µM
same,IC (TGI),SF-539,6.56 µM
same,CC50,SF-539,14 µM
same,percent cell growth promotion,SF-539,-10.19%
same,GI50,SNB-75,0.29 µM
same,IC (TGI),SNB-75,5.27 µM
same,LC50 (concentration killing 50% of cells),SNB-75,23.1 µM
same,activity at 10 µM,SNB-75,-6.06%
same,GI50,M14,0.85 µM
same,IC (TGI),M14,4.69 µM
same,activity at 10 µM,M14,-15.7%
same,CC50,M14,12.9 µM
same,GI50,SK-MEL-2,0.7 µM
same,IC (TGI),SK-MEL-2,3.98 µM
same,CC50,SK-MEL-2,11 µM
same,percent cell growth promotion,SK-MEL-2,-34.44%
same,GI50,UACC-62,1 µM
same,activity at 10 µM,UACC-62,-29.2%
same,CC50,UACC-62,20.1 µM
same,TGI,UACC-62,5.76 µM
same,GI50,IGROV1,0.9 µM
same,IC (TGI),IGROV1,6.3 µM
same,CC50,IGROV1,> 25 µM
same,activity at 10 µM,IGROV1,1.51%
same,GI50,786-0,2.22 µM
same,IC (TGI),786-0,7.63 µM
same,CC50,786-0,24.4 µM
same,activity at 10 µM,786-0,-5.76%
same,GI50,UO-31,0.6 µM
same,IC (TGI),UO-31,5.28 µM
same,CC50,UO-31,> 25 µM
same,activity at 10 µM,UO-31,-42.5%
same,GI50,MCF7,0.93 µM
same,IC (TGI),MCF7,6.4 µM
same,activity at 10 µM,MCF7,-1.96%
same,CC50,MCF7,24.9 µM
same,GI50,BT-549,1.9 µM
same,IC (TGI),BT-549,7.42 µM
same,activity at 10 µM,BT-549,-12.2%
same,CC50,BT-549,24.8 µM
same,GI50,full NCI 60 cell panel,0.15 to 8.41 µM
"Clc1ccc(Nc2nnc(COc3ccccc3)c3ccccc23)cc1 [Compound 17a, N-(4-Chlorophenyl)-4-(phenoxymethyl)phthalazin-1-amine]",GI50,EKVX,0.67 µM
same,IC (TGI),EKVX,7.32 µM
same,LC50,EKVX,> 25 µM
same,percent cell growth promotion,EKVX,6.53%
same,GI50,SF-539,3.12 µM
same,IC (TGI),SF-539,7.58 µM
same,CC50,SF-539,18.4 µM
same,percent cell growth promotion,SF-539,8.42%
same,GI50,SNB-75,0.49 µM
same,IC (TGI),SNB-75,6.65 µM
same,LC50 (concentration killing 50% of cells),SNB-75,> 25 µM
same,activity at 10 µM,SNB-75,13.1%
same,GI50,M14,0.91 µM
same,IC (TGI),M14,5.03 µM
same,activity at 10 µM,M14,-9.99%
same,CC50,M14,15.2 µM
same,GI50,SK-MEL-2,0.97 µM
same,IC (TGI),SK-MEL-2,5.13 µM
same,CC50,SK-MEL-2,15.1 µM
same,percent cell growth promotion,SK-MEL-2,-26.47%
same,GI50,UACC-62,1.24 µM
same,activity at 10 µM,UACC-62,-27.7%
same,CC50,UACC-62,17.5 µM
same,TGI,UACC-62,5.69 µM
same,GI50,IGROV1,1.14 µM
same,IC (TGI),IGROV1,6.37 µM
same,CC50,IGROV1,> 25 µM
same,activity at 10 µM,IGROV1,16.1%
same,GI50,786-0,2.6 µM
same,IC (TGI),786-0,8.11 µM
same,CC50,786-0,> 25 µM
same,activity at 10 µM,786-0,5.25%
same,GI50,UO-31,0.72 µM
same,IC (TGI),UO-31,5.2 µM
same,CC50,UO-31,23.9 µM
same,activity at 10 µM,UO-31,-12.3%
same,GI50,MCF7,1.18 µM
same,IC (TGI),MCF7,6.07 µM
same,activity at 10 µM,MCF7,1.31%
same,CC50,MCF7,19.8 µM
same,GI50,BT-549,2.05 µM
same,IC (TGI),BT-549,6.65 µM
same,activity at 10 µM,BT-549,-9.97%
same,CC50,BT-549,19 µM
same,GI50,full NCI 60 cell panel,0.15 to 8.41 µM
